Laboratory results taken from patent US8501807B2, “Pentaerythritol derivatives” (priority 2004, dated 2013).

Experiments:
[1] = Evaluation of moisture retaining ability in dry conditions (weight change, 18° C., RH 20%); type: physicochemical; conditions: initial moisture content 60%, constant temperature and humidity chamber 18° C.
Experimental: Moisture retaining ability was evaluated and compared for the compounds obtained in the Examples.
Specifically, samples were prepared such that the moisture content of the compounds obtained in the Examples was 60%, and while the samples were kept in a constant temperature and humidity chamber (18° C., RH 20%), the weight change of the samples was observed over time, thereby enabling evaluation of the changes in moisture content.

hairless Guinea pigs = assay: Evaluation of the increase of moisture content in the skin (Corneometer, acetone-damaged skin barrier); type: in vivo; conditions: flank, 200 μl applied after 30 min acetone patch; for moisture content of the stratum corneum, 6 h after sample application: relative to content directly after acetone treatment = 100, 6 h; for moisture content of the stratum corneum, 12 h after sample application: relative to content directly after acetone treatment = 100, 12 h; for moisture content of the stratum corneum, 24 h after sample application: relative to content directly after acetone treatment = 100, 24 h; for moisture content of the stratum corneum, 48 h after sample application: relative to content directly after acetone treatment = 100, 48 h
Experimental: The degree of the increase of moisture content in the skin was measured for the compounds obtained in the Examples. The increase of moisture content in the skin was measured by dividing 50 hairless Guinea pigs into 10 groups, and applying the compounds obtained in the Examples to each group.
Specifically, after the skin barrier was damaged by patching acetone using Finn chamber for 30 minutes to the flank site of the experiment animals, 200 μl of each experimental substance was applied to the patched site, then the moisture content of the stratum corneum of the site was measured using Corneometer and then evaluated. Apparatus measurements were carried out directly after and 6 hours, 12 hours, 24 hours and 48 hours after removing the acetone patch. Changes of moisture content in the skin were evaluated relative to the content measured directly after the acetone treatment, which was set to be 100.

Row | Compound | moisture content of sample, 1 h [1] | moisture content of sample, 2 h [1] | moisture content of sample, 4 h [1] | moisture content of sample, 6 h [1] | moisture content of the stratum corneum, 6 h after sample application (hairless Guinea pigs) | moisture content of the stratum corneum, 12 h after sample application (hairless Guinea pigs) | moisture content of the stratum corneum, 24 h after sample application (hairless Guinea pigs) | moisture content of the stratum corneum, 48 h after sample application (hairless Guinea pigs)
1 | OCC(O)CO [Glycerol, reference compound] | 57% | 50% | 41% | 25% | 109 | 113 | 115 | 117
2 | pentaerythritol ethoxylate (3/4 EO/OH) glycolic ester ethoxylate cetyl ether (pentaerythritol ethoxylate (3/4 EO/OH) ceteth-4 carboxylate) [Example 22] | 56% | 52% | 48% | 43% | 100 | 105 | 109 | 115
3 | pentaerythritol ethoxylate (3/4 EO/OH) glycolic ester ethoxylate octyl ether(pentaerythritol ethoxylate (3/4 EO/OH) capreth-4 carboxylate) [Example 17] | 57% | 53% | 47% | 38% | 103 | 106 | 108 | 104
4 | pentaerythritol ethoxylate (15/4 EO/OH) glycolic ester ethoxylate cetyl ether (pentaerythritol ethoxylate (15/4 EO/OH) ceteth-10 carboxylate) [Example 38] | 58% | 52% | 44% | 29% | 108 | 111 | 112 | 114
5 | pentaerythritol ethoxylate (15/4 EO/OH) glycolic ester ethoxylate hexyl ether (pentaerythritol ethoxylate (15/4 EO/OH) hexeth-4 carboxylate) [Example 29] | 57% | 55% | 50% | 43% | 106 | 109 | 111 | 109
6 | pentaerythritol ethoxylate (15/4 EO/OH) glycolic ester ethoxylate lauryl ether (pentaerythritol ethoxylate (15/4 EO/OH) laureth-6 carboxylate) [Example 34] | 58% | 56% | 49% | 45% | 105 | 110 | 116 | 114
7 | pentaerythritol ethoxylate (15/4 EO/OH) glycolic ester ethoxylate stearyl ether (pentaerythritol ethoxylate (15/4 EO/OH) steareth-10 carboxylate) [Example 42] |  |  |  |  | 106 | 110 | 109 | 111
8 | pentaerythritol glycolic ester ethoxylate cetyl ether (pentaerythritol ceteth-10 carboxylate) [Example 10] | 58% | 57% | 50% | 44% | 101 | 105 | 109 | 113
9 | pentaerythritol glycolic ester ethoxylate lauryl ether (pentaerythritol laureth-4 carboxylate) [Example 5] | 58% | 55% | 49% | 41% | 98 | 99 | 103 | 105
